# pIC50: −log10 of the molar value.
# Target: T1, mutant B-RAF (Homo sapiens, UniProt P15056, V600E)
# T1 construct: purchased Upstate (Charlottesville, Va.)
# Assay: RAF biochemical assay (MEK-1 phosphorylation, anti-phospho MEK1/2 detection)
# Conditions: not given
# Procedure: Materials: The RAF kinases and the anti-phospho MEK1/2 antibody were from Upstate (Charlottesville, Va.). The RAF substrate used was full length N-terminal GST-MEK-1, which was expressed in E. coli and purified in-house by HPLC. All proteins were aliquoted and stored at −80° C.
# Compounds were serially diluted in assay buffer containing 1% DMSO and 20 μL of test compound at a concentration 3-fold more than the final concentration, and were added to a polypropylene V-well reaction plate. Vehicle control wells received buffer only with DMSO at equivalent concentrations to the test wells. […] These reaction plates were incubated at room temperature for 30 minutes. Capture of MEK-1 was initiated by transferring 50 μl of the reaction mixture to a Nunc Maxisorp™ microplate that is designed for non-specific protein capture. After 30 minute capture of MEK-1 at room temperature, this plate was washed with TBST (6×200 μL/well) to fully terminate the reaction. The plate was then blocked for 1 hour by the addition of 100 μl/well of Superblock™ in phosphate buffered saline (PBS) blocking reagent. Plate was again washed with TBST (6 times with 200 μL/well), followed by the addition of 70 μL/well of Upstate anti-phospho MEK 1/2 diluted 1:1000 in Pierce Superblock (PBS). After a 60 minute incubation, this plate was washed with TBST (6 times with 200 μL/well), and 70 μL of the secondary antibody (Pierce Alkaline Phosphatase tagged goat anti-rabbit) prepared at 1:4000 in Superblock, were added. After a 45 minute incubation at room temperature, the wells of the microplate were washed with TBST (6 times with 200 μL/well), and thereafter 100 μl/well of Attophos™ fluorescent alkaline phosphatase substrate was added according to the manufacturer's instructions (JBL Scientific).
# T1 sequence (P15056 whole entry V600E): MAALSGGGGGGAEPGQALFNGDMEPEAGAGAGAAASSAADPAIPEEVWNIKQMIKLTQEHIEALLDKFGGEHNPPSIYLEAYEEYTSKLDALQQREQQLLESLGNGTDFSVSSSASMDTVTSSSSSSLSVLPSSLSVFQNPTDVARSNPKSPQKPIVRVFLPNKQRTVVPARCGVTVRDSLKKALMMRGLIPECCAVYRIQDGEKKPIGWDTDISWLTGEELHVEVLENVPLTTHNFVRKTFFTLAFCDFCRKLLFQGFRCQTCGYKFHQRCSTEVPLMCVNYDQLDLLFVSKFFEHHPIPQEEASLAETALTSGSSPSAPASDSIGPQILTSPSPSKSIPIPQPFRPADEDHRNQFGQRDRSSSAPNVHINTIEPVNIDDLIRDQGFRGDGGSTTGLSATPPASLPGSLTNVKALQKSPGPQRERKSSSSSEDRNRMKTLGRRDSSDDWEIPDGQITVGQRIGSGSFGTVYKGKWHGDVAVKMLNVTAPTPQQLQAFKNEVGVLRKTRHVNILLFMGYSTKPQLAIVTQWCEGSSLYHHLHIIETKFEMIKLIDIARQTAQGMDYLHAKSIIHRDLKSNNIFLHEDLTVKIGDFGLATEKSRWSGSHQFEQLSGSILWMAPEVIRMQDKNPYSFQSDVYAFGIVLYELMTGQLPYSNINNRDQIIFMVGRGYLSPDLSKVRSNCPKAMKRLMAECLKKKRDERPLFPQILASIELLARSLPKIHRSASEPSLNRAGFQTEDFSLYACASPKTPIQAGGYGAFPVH
row,SMILES,pIC50
1,"COc1ccc(C(=O)N2CCC[C@@H](Nc3nccc(-c4c(-c5ccc(F)cc5)nc5occn45)n3)C2)cc1 [Example 27, 4-[6-(4-fluorophenyl)imi-dazo[2,1-b][1,3]oxazol-5-yl]-N-[(3R)-1-(4-methoxy-benzoyl)piperidin-3-yl]pyri-midin-2-amine]",5.31
2,"O=C(c1ccc(F)cc1)N1CCC[C@@H](Nc2nccc(-c3c(-c4ccc(F)cc4)nc4occn34)n2)C1 [Example 28, N-[(3R)-1-(4-fluorobenzoyl)piperidin-3-yl]-4-[6-(4-fluorophenyl)imi-dazo[2,1-b][1,3]oxazol-5-yl]pyrimidin-2-amine]",6.74
3,"COCC(=O)N1CCC[C@@H](Nc2nccc(-c3c(-c4ccc(F)cc4)nc4occn34)n2)C1 [Example 30, 4-[6-(4-fluorophenyl)imi-dazo[2,1-b][1,3]oxazol-5-yl]-N-[(3R)-1-(methoxyacetyl)piperidin-3-yl]pyrimidin-2-amine]",6.15
4,"O=C(c1ccncc1)N1CCC[C@@H](Nc2nccc(-c3c(-c4ccc(F)cc4)nc4occn34)n2)C1 [Example 32, 4-[6-(4-fluorophenyl)imi-dazo[2,1-b][1,3]oxazol-5-yl]-N-[(3R)-1-isonicotinoylpiper-idin-3-yl]pyrimidin-2-amine]",6.44
5,"O=C(c1ccco1)N1CCC[C@@H](Nc2nccc(-c3c(-c4ccc(F)cc4)nc4occn34)n2)C1 [Example 33, 4-[6-(4-fluorophenyl)imi-dazo[2,1-b][1,3]oxazol-5-yl]-N-[(3R)-1-(2-furoyl)piperidin-3-yl]pyrimidin-2-amine]",5.66
6,"CCC(=O)N1CCC[C@@H](Nc2nccc(-c3c(-c4ccc(F)cc4)nc4occn34)n2)C1 [Example 34, 4-[6-(4-fluorophenyl)imi-dazo[2,1-b][1,3]oxazol-5-yl]-N-[(3R)-1-propionylpiperidin-3-yl]pyrimidin-2-amine]",5.80
7,"CC(C)(N)C(=O)N1CCC[C@@H](Nc2nccc(-c3c(-c4ccc(F)cc4)nc4occn34)n2)C1 [Example 36, N-[(3R)-1-(2-amino-2-methylpropanoyl)piperidin-3-yl]-4-[6-(4-fluorophenyl)imi-dazo[2,1-b][1,3]oxazol-5-yl]pyrimidin-2-amine]",5.34
8,"O=C([C@@H]1CCCN1)N1CCC[C@@H](Nc2nccc(-c3c(-c4ccc(F)cc4)nc4occn34)n2)C1 [Example 37, 4-[6-(4-fluorophenyl)imi-dazo[2,1-b][1,3]oxazol-5-yl]-N-[(3R)-1-L-prolylpiperidin-3-yl]pyrimidin-2-amine]",< 5.30
9,"O=C(CCc1ccccc1)N1CCC[C@@H](Nc2nccc(-c3c(-c4ccc(F)cc4)nc4occn34)n2)C1 [Example 38, 4-[6-(4-fluorophenyl)imi-dazo[2,1-b][1,3]oxazol-5-yl]-N-[(3R)-1-(3-phenylpro-panoyl)piperidin-3-yl]pyr-imidin-2-amine]",5.54
10,"CC(C)CC(=O)N1CCC[C@@H](Nc2nccc(-c3c(-c4ccc(F)cc4)nc4occn34)n2)C1 [Example 40, 4-[6-(4-fluorophenyl)imi-dazo[2,1-b][1,3]oxazol-5-yl]-N-[(3R)-1-(3-methylbuta-noyl)piperidin-3-yl]pyrimidin-2-amine]",6.85
11,"Cc1ccc(S(=O)(=O)N2CCC[C@@H](Nc3nccc(-c4c(-c5ccc(F)cc5)nc5occn45)n3)C2)cc1 [Example 45, 4-[6-(4-fluorophenyl)imi-dazo[2,1-b][1,3]oxazol-5-yl]-N-{(3R)-1-[(4-methylphenyl)sulfonyl]piperidin-3-yl}pyr-imidin-2-amine]",6.23

# Same assay, conditions: @ 10 uM
row,SMILES,Mutant B-RAF % inhibition
1,"O=S(=O)(c1ccccc1)N1CCC[C@@H](Nc2nccc(-c3c(-c4ccc(F)cc4)nc4occn34)n2)C1 [Example 42, 4-[6-(4-fluorophenyl)imi-dazo[2,1-b][1,3]oxazol-5-yl]-N-[(3R)-1-(phenylsulfonyl)piperidin-3-yl]pyrimidin-2-amine]",68 @ 10 uM %
2,"COc1ccc(S(=O)(=O)N2CCC[C@@H](Nc3nccc(-c4c(-c5ccc(F)cc5)nc5occn45)n3)C2)cc1 [Example 44, 4-[6-(4-fluorophenyl)imi-dazo[2,1-b][1,3]oxazol-5-yl]-N-{(3R)-1-[(4-methoxy-phenyl)sulfonyl]piperidin-3-yl}pyrimidin-2-amine]",45 @ 10 uM %
3,"O=S(=O)(c1cccc(C(F)(F)F)c1)N1CCC[C@@H](Nc2nccc(-c3c(-c4ccc(F)cc4)nc4occn34)n2)C1 [Example 46, 4-[6-(4-fluorophenyl)imi-dazo[2,1-b][1,3]oxazol-5-yl]-N-((3R)-1-{[3-(trifluoro-methyl)phenyl]sulfonyl}piper-idin-3-yl)pyrimidin-2-amine]",19 @ 10 uM %

# Same assay, conditions: @ 10 uM; read-out: Mutant B-RAF % inhibition
row,inhibition at 10 µM [%],SMILES
1,55,Fc1ccc(CN2CCCC(Nc3nccc(-c4c(-c5ccc(F)cc5)nc5sccn45)n3)C2)cc1 (stereo not shown) [Example 4]
2,16,Cc1ccc(NC(=O)N2CCC[C@@H](Nc3nccc(-c4c(-c5ccc(F)cc5)nc5occn45)n3)C2)cc1 [Example 17]
3,60,"CN(C)c1ccc(NC(=O)N2CCC[C@@H](Nc3nccc(-c4c(-c5ccc(F)cc5)nc5occn45)n3)C2)cc1 [Example 24, (3R)-N-[4-(dimethyl-amino)phenyl]-3-({4-[6-(4-fluorophenyl)imidazo[2,1-b][1,3]oxazol-5-yl]pyrimidin-2-yl}amino)piperidine-1-carboxamide]"
4,35,"O=C(NCc1ccco1)N1CCC[C@@H](Nc2nccc(-c3c(-c4ccc(F)cc4)nc4occn34)n2)C1 [Example 25, (3R)-3-({4-[6-(4-fluorophenyl)imidazo[2,1-b][1,3]oxazol-5-yl]pyrimidin-2-yl}amino)-N-(2-furylmethyl)piperidine-1-carboxamide]"
5,11,"NCC(=O)N1CCC[C@@H](Nc2nccc(-c3c(-c4ccc(F)cc4)nc4occn34)n2)C1 [Example 35, N-[(3R)-1-(aminoacetyl)piper-idin-3-yl]-4-[6-(4-fluorophenyl)imidazo[2,1-b][1,3]oxazol-5-yl]pyrimidin-2-amine]"

# Same assay, conditions: read-out: Mutant B-RAF % inhibition
row,SMILES,inhibition at 10 µM [%]
1,"O=C(N1CCOCC1)N1CCC[C@@H](Nc2nccc(-c3c(-c4ccc(F)cc4)nc4occn34)n2)C1 [Example 41, 4-[6-(4-fluorophenyl)imi-dazo[2,1-b][1,3]oxazol-5-yl]-N-[(3R)-1-(morpholin-4-ylcarbonyl)piperidin-3-yl]pyrimidin-2-amine]",38

# Same assay, conditions: read-out: Mutant B-RAF IC50
row,pIC50,SMILES
1,6.16,"COc1ccc(-c2nc3sccn3c2-c2ccnc(NC3CCCN(S(=O)(=O)c4ccc(Cl)cc4)C3)n2)cc1OC (stereo in doubt) [Example 135, N-{(3R)-1-[(4-chlorophenyl)sulfonyl]piperidin-3-yl}-4-[6-(3,4-dimethoxyphenyl)imidazo[2,1-b][1,3]thiazol-5-yl]pyrimidin-2-amine]"
2,6.34,"O=S(=O)(c1ccc(F)cc1)N1CCCC(Nc2nccc(-c3c(-c4ccc(F)cc4)nc4sccn34)n2)C1 (stereo not shown) [Example 2, 4-[6-(4-fluorophenyl)imidazo[2,1-b][1,3]thiazol-5-yl]-N-{1-[(4-fluorophenyl)sulfonyl]piperidin-3-yl}pyrimidin-2-amine]"
3,6.71,"O=C(c1ccccc1)N1CCC[C@@H](Nc2nccc(-c3c(-c4ccc(F)cc4)nc4occn34)n2)C1 [Example 26, N-[(3R)-1-benzoylpiperidin-3-yl]-4-[6-(4-fluorophenyl)imidazo[2,1-b][1,3]oxazol-5-yl]pyrimidin-2-amine]"
4,5.74,"O=C(COc1ccc(Cl)cc1)N1CCC[C@@H](Nc2nccc(-c3c(-c4ccc(F)cc4)nc4occn34)n2)C1 [Example 29, N-{(3R)-1-[(4-chlorophenoxy)acetyl]piper-idin-3-yl}-4-[6-(4-fluorophenyl)imidazo[2,1-b][1,3]oxazol-5-yl]pyrimidin-2-amine]"
5,5.53,"O=C(C1CCCCC1)N1CCC[C@@H](Nc2nccc(-c3c(-c4ccc(F)cc4)nc4occn34)n2)C1 [Example 31, N-[(3R)-1-(cyclohexylcarbonyl)piperidin-3-yl]-4-[6-(4-fluorophenyl)imidazo[2,1-b][1,3]oxazol-5-yl]pyrimidin-2-amine]"
6,6.32,"CN(C)c1ccc(C(=O)N2CCC[C@@H](Nc3nccc(-c4c(-c5ccc(F)cc5)nc5occn45)n3)C2)cc1 [Example 39, N-{(3R)-1-[4-(dimethyl-amino)benzoyl]piperidin-3-yl}-4-[6-(4-fluorophenyl)imidazo[2,1-b][1,3]oxazol-5-yl]pyrimidin-2-amine]"
7,6.84,"O=S(=O)(c1ccc(Cl)cc1)N1CCC[C@@H](Nc2nccc(-c3c(-c4ccc(F)cc4)nc4occn34)n2)C1 [Example 43, N-{(3R)-1-[(4-chlorophenyl)sulfonyl]piper-idin-3-yl}-4-[6-(4-fluorophenyl)imidazo[2,1-b][1,3]oxazol-5-yl]pyrimidin-2-amine]"
8,6.02,"O=S(=O)(c1ccc(F)c(Cl)c1)N1CCC[C@@H](Nc2nccc(-c3c(-c4ccc(F)cc4)nc4occn34)n2)C1 [Example 47, N-{(3R)-1-[(3-chloro-4-fluorophenyl)sulfonyl]piper-idin-3-yl}-4-[6-(4-fluorophenyl)imidazo[2,1-b][1,3]oxazol-5-yl]pyrimidin-2-amine]"
